Laboratory results taken from patent publication US12611392B2, “Mitochondria-targeting antioxidants” (GIVAUDAN SA, priority 2019, dated 2026).
Read-outs that look alike come from different tables or passages of the source.

Columns and labels:
[1] = system: ROS production in cardiac tissue; experiment: ROS production by dihydroethidium (DHE) staining of cardiac tissue after ischemia-reperfusion; parameters: species or system rat; conditions: 10 min after IR; for reduction of DHE fluorescence compared to control hearts: MitoT 0.1 μM, sinapine 60 μM
Experimental: LV samples were embedded in Optimal Cutting Temperature (OCT from Tissue-Tek) and flash-frozen in liquid nitrogen. Frozen sections were covered with 10 μM DHE and incubated in alight-protected humidified chamber at 37° C. for 5 min. Images were obtained with a fluorescence microscope (Olympus BX60, Excitation: 488 nm; emission: 610 nm) at the Imaging facility 3A INRA/University of Avignon. SOD-mimetic TEMPOL (10 mM, Santa Cruz Biotechnology) was used as a negative control to confirm that the signals resulted from ROS production.

[2] = Partition between octan-1-ol and aqueous solution at pH 7.0 (log P / log D); conditions: for share in the aqueous phase: octan-1-ol / water; for partition in octan-1-ol: octan-1-ol / water pH 7.0
Experimental: In a 10-mL glass tube, two milligrams of sinapine, sinapic acid or MitoTEMPO were added by 4 mL of a 75 mM KH2PO4 buffer solution (aqueous phase), and 4 mL of octan-1-ol. The mixture was then vortexed for 1 hour at room temperature and left to equilibrate for 30 min for sinapic acid and sinapine, and overnight for MitoTEMPO. Both phases were collected with a Pasteur pipette and extemporaneously analyzed by LC-MS using the procedure described below in section 2.7.
The partition coefficient of sinapine, sinapic acid and MitoTEMPO (a commercially-available mitonchondria-targeting superoxide dismutase (SOD) mimetic) between two immiscible liquid phases (octan-1-ol and an aqueous solution at pH 7.0) was measured.

[3] = Plasmatic and tissular levels after oral administration of sinapine; format: in vivo, rat; conditions: oral sinapine 200 mg/kg; for level in cytosolic and mitochondrial fractions of the heart: 120 min post-gavage; for plasmatic level: 10, 30, 60, 120 min
Experimental: To evaluate plasmatic and tissular bioavailability of sinapine, rats received 200 mg/kg of sinapine by oral gavage. […] Sinapine and sinapic acid were then quantified in plasma using the following procedure: plasma (50 μL) is mixed with internal standard solution (50 μL in methanol at 10 ng/mL) and mix on a vortex for 1 minute. The solution is then centrifuge for 3 minutes at 12000 rpm, and the supernatant injected into HPLC/MS for quantification. At the end of the procedure the animals were sacrificed and hearts quickly removed. The right ventricle cleaned and LV samples frozen in liquid nitrogen. LV tissue was homogenized in 2 mL of mitochondria isolation buffer (pH 7.2; in mM: 300 saccharose, 5 TES. 0.2 EGTA), using a Polytron (Ultra Turrax T25, IKA Labortechnik). The homogenate was centrifugated at 1,000 g for 10 min at 4° C. To separate cytosolic fraction from the mitochondrial one, the supernatant was centrifugated at 12,000 g for 15 min to 4° C., then collected (cytosolic fraction), while the pellet was collected for mitochondria fraction. To optimize the release of mitochondria materials, the pellet was homogenized in 2% Triton-X lysis buffer during 10 min on ice. To remove Triton-X, mitochondrial fraction was washed, then centrifuged (12,000 g for 15 min at 4° C.) and the pellet was resuspended in mitochondria isolation buffer. Cytosolic and mitochondria fraction obtained were quickly frozen in liquid nitrogen until HPLC measurement. To do so, mitochondria was extracted with the same procedure as for plasma procedure. Cytosol (50 μL) was pipetted into 10 mL volumetric flask, spiked successively with internal standard solution (200 μL at 250 ng/mL in methanol) and 5 mL of methanol-water (50/50 v:v). The flask was ultrasonicated for 5 min, and once cooled down, completed to 10 mL with methanol-water (50/50 v:v). Both the mitochondrial and the cytosolic fractions were analyzed with the LC-MS/MS procedure described above.
After 120 min post-gavage, the heart was removed, rinsed and quickly frozen in liquid nitrogen.

[4] = system: ROS production in isolated adult rat cardiomyocytes; experiment: H2O2 and antimycin A-induced oxidative stress in cardiomyocytes (H2DCF-DA and DHR123 probes); format: cell-based; conditions: for effect on H2O2-induced increase in H2DCF-DA fluorescence (cytosolic ROS): 0.1 mM H2O2, 1 h pre-incubation; for effect on H2O2-induced increase in H2DCF-DA fluorescence (cytosolic ROS) / effect of pre-incubation on basal H2DCF-DA and DHR123 fluorescence: sinapic acid 60 μM; for effect of pre-incubation on basal H2DCF-DA and DHR123 fluorescence: control (basal) cells, no stress, sinapine 6 or 60 μM, 1 h
Experimental: Cardiomyocytes (30,000 cell/mL) were incubated with sinapine or sinapic acid for 1 h. Thirty minutes before the end, a fluorogenic probe was added. We used dihydrorhodamine 123 (DHR123) to probe mitochondrial H2O2 and peroxynitrites (Invitrogen Molecular probes Fischer scientific, D23806, Ex/Em: 508/529 nm, concentration=5 μM) and 2′,7′-dichlorodihydrofluorescein diacetate (H2DCF-DA) to probe cytosolic H2O2(Invitrogen Molecular probes Fischer scientific, D399 Ex/Em: 492/517 nm, concentration=5 μM). Cells were rinsed with a Tyrode solution and distributed in microplates for the various conditions. Some cells were stimulated with 0.1 mM H2O2(Sigma Aldrich) or with a 10 μM complex III blocker, antimycin A (AA, Sigma Aldrich) to force the cell to produce mitochondrial ROS. The microplate was immediately transferred to the microplate reader Tecan Infinite M200Pro. Fluorescence was measured at the different wavelengths every 5 min for 30 min.
Two different ROS sensitive fluorogenic probes were used, H2DCF-DA and DHR123, which are specific of cytosolic and mitochondrial ROS production, respectively (Wei et al. Nitric oxide induces oxidative stress and apoptosis in neuronal cells. Biochim. Biophys. Acta-Mol. Cell Res. 2000, 1498, 72-79; Rego et al. Influence of the antioxidants vitamin E and idebenone on retinal cell injury mediated by chemical ischemia, hypoglycemia, or oxidative stress. Free Rad Biol. Med. 1999, 26, 1405-1417; Mark et al. Basic FGF attenuates amyloid β-peptide-induced oxidative stress, mitochondrial dysfunction, and impairment of Na+/K+-ATPase activity in hippocampal neurons. Brain Res. 1997, 756, 205-214).
Myocytes loaded with one of the probes were distributed in microplate wells. ROS production was determined by following the increase of fluorescence for […]. Fluorescence was measured every 5 min and was normalized by the baseline fluorescence (T0). Some cells were incubated with either sinapine (6 or 60 μM) or sinapic acid (60 μM) for 1 h prior measurement. After the incubations, cells were washed out. Some cells were stimulated with 0.1 mM H2O2 or with a mitochondrial electron transport chain complex III blocker, 10 μM antimycin A (AA) to force mitochondria to produce mitochondrial ROS (Quinlan et al. The mechanism of superoxide production by the antimycin-inhibited mitochondrial Q-cycle. J. Biol. Chem. 2011, 286, 31361-31372).

[5] = system: isolated adult cardiomyocytes; conditions: male, Wistar, rat, 2 μM
Experimental: (§1) Ventricular cardiomyocytes were isolated from 200-250 g male adult Wistar rats as previously described (Cazorla et al. Transmural stretch-dependent regulation of contractile properties in rat heart and its alteration after myocardial infarction. FASEB J. 2005, 19, 88-90). The rats were anesthetized by i.p. injection of pentobarbital sodium (100 mg/kg) with heparin (100 U). The heart was rapidly excised, rinsed in ice-cold Hanks-HEPES buffer (in mM: NaCl 117, KCl 5.7. NaHCO3 4.4, KH2PO4 1.5. MgCl2 1.7, HEPES 21, glucose 11.7, taurine 20. pH at 7.15) mounted on a Langendort perfusion system and perfused (3 mi/min, at 37° C.) first with a Hanks-HEPES buffer for 5 min to be cleared from blood, then with a buffer supplemented with 1.2 mg/mL collagenase type 4 (Worthington, Lakewood, N.J., USA) for 13-18 min. Small pieces of left ventricle were dissected and mechanically dissociated. […] Experiments were performed in Tyrode solution with 1.8 mM Ca^2+.

cardiomyocytes = experiment: Cytosol/mitochondria partitioning in cardiomyocytes by LC-MS/MS
Experimental: as §1
Antioxidants were also quantified in cardiomyocytes using LC-MS/MS. Cardiomyocytes (100,000 cells/mL) were incubated in Tyrode for 1 or 2 h with different concentrations of sinapine (2, 20, and 60 μM) or sinapic acid (Sigma Aldrich, 2, 20, and 60 μM). Extracellular, cytosolic and mitochondrial fractions were obtained and frozen in liquid nitrogen until HPLC measurement. After incubation, cells were sedimented and the supernatant collected for the extracellular fraction. The pellet of cells was rinsed twice in Tyrode. Cells were incubated with PBS containing digitonine (5 mg/mL) for 10 min on ice. Cells were centrifugated at 10,000 g for 20 min at 4° C., and the supernatant consisting in the cytosolic fraction was collected. The mitochondrial fraction was collected after rinsing five times the pellets in PBS to avoid contamination of the cytosolic fraction.
These different fractions were then analyzed using an Agilent Poroshell EC-C18 120, 2.7 microns, 2.1×150 mm analytical column on an Agilent 1290 Infinity II series pump. Injection volume was 1 μL. HPLC flow rate was 0.3 mL/min with the following mobile phases: water with 0.1% formic acid (A) and acetonitrile with 0.1% formic acid (B). The gradient was as follows: 0.0-3.0 min 0-30% B, 3.0-7.0 min 30-60% B, then a stabilization step of 4 min at the initial condition. Autosampler tray temperature was set to 10° C. and column temperature was set to 25° C. Detection was performed with an Agilent 6420 triple quadrupole in positive ionization mode with ESI source, gas temperature 325° C., gas flow 9 L/min, nebulizer 35 psi, and capillary voltage 3500 V. Mass spectrometer was working in MRM mode acquisition following the specific transition for Isoproturon-d3 (internal standard 210.2→75.0), Sinapine 310.2→251.1 (qualifier 175.0 and 91.0) and Sinapic acid 225.1→207.0 (qualifier 91.0 and 65.0).
To further evaluate if a positively charged moiety (such as choline) can endowed an antioxidant devoid of any lipid affinity with the ability to accumulate in mitochondria, we incubated sinapine and sinapic acid (lacking the choline group, i.e. negative control) in intact cardiomyocytes at three concentrations (2, 20, and 60 μM) for 1 or 2 h. Then, the mitochondrial fraction was separated from the cytosolic one using differential centrifugation. The levels of sinapine and sinapic acid were measured in each subcellular fraction using LC-MS/MS.

[6] = Oxygen radical absorbance capacity (ORAC) assay; conditions: aqueous solution; n=4
Description: (§2) The result of this operation gave the net area under the curve (AUC) which was then plotted on a graph as a function of the concentration.

[7] = cited from earlier work
[8] = Conjugated autoxidizable triene (CAT) assay; conditions: oil-in-water microemulsion; n=3
Description: as §2

[9] = 2, 20 and 60 μM, 1 or 2 h incubation

Row | Structure (SMILES) | reduction of DHE fluorescence compared to control hearts [1] [%] | share in the aqueous phase [2] [%] | partition in octan-1-ol [2] [%] | level in cytosolic and mitochondrial fractions of the heart [3] | plasmatic level [3] | effect on H2O2-induced increase in H2DCF-DA fluorescence (cytosolic ROS) ([4]; sinapine 6 and 60 μM) | effect of pre-incubation on basal H2DCF-DA and DHR123 fluorescence [4] | ORAC value [6] | log D/log P (pH 7.0) [7] | other results
1 | COc1cc(/C=C/C(=O)OCC[N+](C)(C)C)cc(OC)c1O [sinapine] | 45 | > 99 | < 0.2 | detected and quantified in both the cytosol and mitochondria | detected at all time points at a relatively stable level | prevented the increase in H2DCF-DA | no impact on the fluorescence level | 2.28±0.25 mol of Trolox equivalent per mol of compound | – | logD ([2]; pH 7): -3; logP ([2]; pH 7): -3; effect on antimycin A-induced increase in DHR123 fluorescence (mitochondrial ROS) ([4]; 10 μM antimycin A, 1 h pre-treatment): prevented by sinapine; dose dependence of the effect on H2O2-induced H2DCF-DA increase ([4]; sinapine 6 and 60 μM): dose-dependent; time after which fluorescence increased [5]: 10 to 15 min; level of the incubated compound in cytosol (cardiomyocytes; [9]): detected sinapine in a dose dependent manner; level of the incubated compound in mitochondria (cardiomyocytes; [9]): detected in a dose-dependent manner in mitochondria; share of sinapine entering the mitochondria that is hydrolyzed to sinapic acid (cardiomyocytes; after 1 or 2 h): approximately 25%; time of entry into cardiac cells (cardiomyocytes; no time-dependency between 1 and 2 h): within an hour; hydrolysis of sinapine in cytosol (sinapic acid not detected) (cardiomyocytes; sinapine incubation 1 or 2 h): no major sinapine hydrolysis
2 | COC1=C(OC)C(=O)C(CCCCCCCCCC[P+](c2ccccc2)(c2ccccc2)c2ccccc2)=C(C)C1=O.CS(=O)(=O)[O-] [MitoQ10] | – | – | – | – | – | – | – | – | 3.4 | –
3 | COC1=C(OC)C(=O)C(CCCCC[P+](c2ccccc2)(c2ccccc2)c2ccccc2)=C(C)C1=O [MitoQ5] | – | – | – | – | – | – | – | – | 1.1 | –
4 | COc1cc(/C=C/C(=O)O)cc(OC)c1O [sinapic acid] | – | > 85 | – | not found in any of the fractions | detected at all time points at a relatively stable level | prevented the increase in H2DCF-DA | no impact on the fluorescence level | 2.73±0.176 mol of Trolox equivalent per mol of compound | – | ROS production (DHE) versus Ctrl ([1]; sinapic acid 60 μM, not significant (p=0.12)): −20%; log P ([2]; octan-1-ol / aqueous solution at pH 7.0): −0.9; plasma amount of sinapic acid relative to sinapine ([3]; 2 h period): about five times more sinapic acid than sinapine; time of entry into cardiac cells (cardiomyocytes): within an hour; CAT value [8]: 1.74±0.07 mol of Trolox equivalent per mol of compound
5 | CC1(C)CC(NC(=O)C[P+](c2ccccc2)(c2ccccc2)c2ccccc2)CC(C)(C)N1[O] [MitoTEMPO] | 24 | – | 50 | – | – | – | – | – | – | log D (pH 7.0) ([2]; octan-1-ol / aqueous buffer, experimental): 0.0; partitioning in both phases ([2]; octan-1-ol / aqueous phase, pH 7.0): 50/50
6 | COC1=C(OC)C(=O)C(CCC[P+](c2ccccc2)(c2ccccc2)c2ccccc2)=C(C)C1=O [MitoQ3] | – | – | – | – | – | – | – | – | 0.5 | –
